This is an account of results in US20180237441A1, “Chemical Compounds” (GlaxoSmithKline Intellectual Property (No.2) Limited, priority 2015, published 2018).

Structures are written as SMILES.

The target in one assay is T1, PERK (Homo sapiens, UniProt Q9NZJ5).
T1 sequence (Q9NZJ5 30-1116): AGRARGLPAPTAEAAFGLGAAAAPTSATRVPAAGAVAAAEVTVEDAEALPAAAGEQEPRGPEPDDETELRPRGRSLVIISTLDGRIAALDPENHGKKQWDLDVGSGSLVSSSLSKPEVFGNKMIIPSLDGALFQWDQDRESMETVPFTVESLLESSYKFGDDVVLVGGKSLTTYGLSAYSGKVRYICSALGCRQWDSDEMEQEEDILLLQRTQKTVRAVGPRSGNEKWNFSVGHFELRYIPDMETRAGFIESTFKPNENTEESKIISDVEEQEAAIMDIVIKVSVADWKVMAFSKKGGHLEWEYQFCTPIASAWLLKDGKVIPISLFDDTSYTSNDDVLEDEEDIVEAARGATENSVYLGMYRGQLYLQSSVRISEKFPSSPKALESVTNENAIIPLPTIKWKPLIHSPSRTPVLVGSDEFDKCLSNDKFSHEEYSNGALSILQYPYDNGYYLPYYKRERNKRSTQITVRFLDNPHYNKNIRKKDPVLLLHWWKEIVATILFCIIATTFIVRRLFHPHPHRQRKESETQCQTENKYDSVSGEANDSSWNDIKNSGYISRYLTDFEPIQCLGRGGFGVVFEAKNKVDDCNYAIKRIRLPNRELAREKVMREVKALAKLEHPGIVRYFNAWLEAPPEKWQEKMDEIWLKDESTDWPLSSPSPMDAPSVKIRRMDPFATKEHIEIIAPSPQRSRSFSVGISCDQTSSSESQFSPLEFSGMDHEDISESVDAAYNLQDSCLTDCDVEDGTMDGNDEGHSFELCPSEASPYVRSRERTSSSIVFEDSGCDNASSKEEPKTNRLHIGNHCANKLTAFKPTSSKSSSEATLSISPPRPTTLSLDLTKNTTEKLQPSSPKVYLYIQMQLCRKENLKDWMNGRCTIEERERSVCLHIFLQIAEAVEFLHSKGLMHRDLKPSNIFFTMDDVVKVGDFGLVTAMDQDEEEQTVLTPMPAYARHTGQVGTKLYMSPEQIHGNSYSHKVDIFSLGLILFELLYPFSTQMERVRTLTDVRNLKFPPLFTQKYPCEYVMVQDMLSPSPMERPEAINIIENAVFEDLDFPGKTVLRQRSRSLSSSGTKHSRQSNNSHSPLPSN
Description: PERK enzyme assay (HTRF). It is filed as biochemical. As to conditions: 500 μM ATP; at least one experimental run; read-out: PERK Enzyme (500 μM ATP) IC50. Here is the method: Compounds of the invention were assayed for PERK enzyme inhibitory activity with modifications to previously reported conditions (Axten et al. J. Med. Chem., 2012, 55, 7193-7207). Briefly, various concentrations of compounds (maximum 1% DMSO) were dispensed into 384-well plates containing GST-PERK enzyme. After 30-60 minutes of compound pre-incubation, ATP and biotin-eIF2α were added and after 60 minutes the reaction was quenched. After 2 hrs, a fluorescence plate reader was used to measure inhibition and IC50s were calculated.
Enzyme Assay Protocol for PKR-Like Endoplasmic Reticulum Kinase (PERK)—HTRF —% Inhibition
Assay Buffer contains HEPES (pH7.5) 10 mM, CHAPS 2 mM, MgCl2 5 mM and DTT 1 mM in water
Detection Buffer contains HEPES (pH7.5) 10 mM and CHAPS 2 mM in water Assay Plate Preparation:
1. Enzyme Preparation: • 4× Enzyme solution was prepared immediately prior to adding to compound plates. • 3 nM of GST-PERK in Assay buffer. Final [PERK] in 10 μl assay volume=0.75 nM
2. Substrate Preparation: • 4× Substrate solution was prepared immediately prior to adding to compound plates. • 4× Substrate solution in assay buffer 2000 μM ATP and 160 nM Biotin-eIF2α • Final [ATP] in 10 μl assay volume=500 μM • Final [biotin-eIF2a] in 10 μl assay volume=40 nM.
3. Quench/Detection Solution: • 16 nM eIF2 Phospho-Antibody • 16 nM Eu anti-Rabbit IgG • 160 nM Streptavidin-APC • 60 mM EDTA • Final concentration in 10 μL assay volume: 4 nM eIF2 Phospho-Antibody, 4 nM Eu anti-Rabbit IgG 40 nM Streptavidin-APC
The activity of compounds in the PERK enzyme assay was determined at PERK Enzyme (500 μM ATP) IC50 (nM).
(In TR-FRET formats the signal depends on donor and acceptor labels being close together.)
As to `CN1C(=O)N(c2ccc(-c3cn(C4CC4)c4ncnc(N)c34)c(F)c2)CC1c1ccc(F)cc1F` (single isomer, unassigned) [Example 137, 1-(4-(4-amino-7-cyclopropyl-7H-pyrrolo[2,3-d]pyrimidin-5-yl)-3-fluorophenyl)-4-(2,4-difluorophenyl)-3-methylimidazolidin-2-one], the IC50 amounted to 17.8 nM.

As for `CN1C(=O)N(c2ccc(-c3cn(C)c4ncnc(N)c34)c(F)c2)CC1c1ccc(F)cc1F` (single isomer, unassigned) [Example 46, 1-(4-(4-amino-7-methyl-7H-pyrrolo[2,3-d]pyrimidin-5-yl)-3-fluorophenyl)-4-(2,4-difluorophenyl)-3-methylimidazolidin-2-one], the IC50 worked out at 13.8 nM.

Still in this assay, the particulars now being: PERK Enzyme (500 μM ATP) IC50; at least one experimental run; read-out: PERK Activity.
As to `CN1C(=O)N(c2ccc(-c3cn(C)c4ncnc(N)c34)c(F)c2)CC1c1ccc(F)c(F)c1` (centres unmarked) [Example 96, 1-(4-(4-amino-7-methyl-7H-pyrrolo[2,3-d]pyrimidin-5-yl)-3-fluorophenyl)-4-(3,4-difluorophenyl)-3-methylimidazolidin-2-one], the IC50 is below 100 nM.

On to `CN1C(=O)N(c2ccc(-c3cn(C4CC4)c4ncnc(N)c34)c(F)c2)CC1c1ccc(F)cc1F` (single isomer, unassigned) [Example 137, 1-(4-(4-amino-7-cyclopropyl-7H-pyrrolo[2,3-d]pyrimidin-5-yl)-3-fluorophenyl)-4-(2,4-difluorophenyl)-3-methylimidazolidin-2-one], for which the IC50 was below 100 nM.

In the case of `CCN1C(=O)N(c2ccc(-c3cn(C)c4ncnc(N)c34)c(F)c2)CC1c1ccc(F)cc1` (centres unmarked) [Example 57], the IC50 is below 100 nM.

For `Cc1nc(N)c2c(-c3ccc(N4CC(c5c(F)ccc(F)c5F)N(C)C4=O)cc3F)cn(C)c2n1` (centres unmarked) [Example 139, 1-(4-(4-amino-2,7-dimethyl-7H-pyrrolo[2,3-d]pyrimidin-5-yl)-3-fluorophenyl)-3-methyl-4-(2,3,6-trifluorophenyl)imidazolidin-2-one], the IC50 is 100 to 1000 nM.

For the compound `Cn1cc(-c2ccc(N3CC(C4CCCC4)CC3=O)cc2F)c2c(N)ncnc21` (centres unmarked) [Example 28, 1-(4-(4-amino-7-methyl-7H-pyrrolo[2,3-d]pyrimidin-5-yl)-3-fluorophenyl)-4-cyclopentylpyrrolidin-2-one], the IC50 fell in the range of 100 to 1000 nM.

For `Cn1cc(-c2ccc(N3CC(c4cc(F)ccc4F)CC3=O)cc2F)c2c(N)ncnc21` (centres unmarked) [Example 31, 1-(4-(4-amino-7-methyl-7H-pyrrolo[2,3-d]pyrimidin-5-yl)-3-fluorophenyl)-4-(2,5-difluorophenyl)pyrrolidin-2-one], the IC50 lay within 100 to 1000 nM.

Consider `CN1C(=O)N(c2ccc(-c3cn(C)c4ncnc(N)c34)c(F)c2)CC1c1ccccn1` (centres unmarked) [Example 7, 1-(4-(4-amino-7-methyl-7H-pyrrolo[2,3-d]pyrimidin-5-yl)-3-fluorophenyl)-3-methyl-4-(pyridin-2-yl)imidazolidin-2-one], for which the IC50 is below 100 nM.

For the compound `CN1C(=O)N(c2ccc(-c3cn(C)c4ncnc(N)c34)c(F)c2)CC1c1ccc2c(c1)CCO2` (centres unmarked) [Example 147, 1-(4-(4-amino-7-methyl-7H-pyrrolo[2,3-d]pyrimidin-5-yl)-3-fluorophenyl)-4-(2,3-dihydrobenzofuran-5-yl)-3-methylimidazolidin-2-one], the IC50 was below 100 nM.

`CN1C(=O)N(c2ccc(-c3cn(C)c4ncnc(N)c34)c(F)c2)CC1c1ccc(F)cc1F` (single isomer, unassigned) [Example 46, 1-(4-(4-amino-7-methyl-7H-pyrrolo[2,3-d]pyrimidin-5-yl)-3-fluorophenyl)-4-(2,4-difluorophenyl)-3-methylimidazolidin-2-one]: the IC50 is below 100 nM.

`CN1C(=O)N(c2ccc(-c3cn(C4CC4)c4ncnc(N)c34)c(F)c2)CC1c1cccc(Cl)c1` (centres unmarked) [Example 148, 1-(4-(4-amino-7-cyclopropyl-7H-pyrrolo[2,3-d]pyrimidin-5-yl)-3-fluorophenyl)-4-(3-chlorophenyl)-3-methylimidazolidin-2-one]: the IC50 was below 100 nM.

With `Cc1nc(N)c2c(-c3ccc(N4CC(c5cncc(F)c5)N(C)C4=O)cc3F)cn(C)c2n1` (single isomer, unassigned) [Example 111, 1-(4-(4-amino-2,7-dimethyl-7H-pyrrolo[2,3-d]pyrimidin-5-yl)-3-fluorophenyl)-4-(5-fluoropyridin-3-yl)-3-methylimidazolidin-2-one], the IC50 is 100 to 1000 nM.

On to `Cc1cc(N2CC(c3cc(F)cc(F)c3)N(C)C2=O)ccc1-c1cn(C)c2ncnc(N)c12` (centres unmarked) [Example 118, 1-(4-(4-amino-7-methyl-7H-pyrrolo[2,3-d]pyrimidin-5-yl)-3-methylphenyl)-4-(3,5-difluorophenyl)-3-methylimidazolidin-2-one], for which the IC50 is below 100 nM.

On to `CN1C(=O)N(c2ccc(-c3cn(C4CC4)c4ncnc(N)c34)c(F)c2)CC1c1cccc(Cl)c1` (single isomer, unassigned) [Example 152, 1-(4-(4-amino-7-cyclopropyl-7H-pyrrolo[2,3-d]pyrimidin-5-yl)-3-fluorophenyl)-4-(3-chlorophenyl)-3-methylimidazolidin-2-one], for which the IC50 is below 100 nM.

With `CN1C(=O)N(c2ccc(-c3cn(C4CC4)c4ncnc(N)c34)c(F)c2)CC1c1cc(F)c(F)cc1F` (centres unmarked) [Example 157, 1-(4-(4-amino-7-cyclopropyl-7H-pyrrolo[2,3-d]pyrimidin-5-yl)-3-fluorophenyl)-3-methyl-4-(2,4,5-trifluorophenyl)imidazolidin-2-one], the IC50 is below 100 nM.

Take `CN1C(=O)N(c2ccc(-c3nn(C)c4ncnc(N)c34)c(F)c2)CC1c1ccc(F)cc1F` (centres unmarked) [Example 99, 1-(4-(4-amino-1-methyl-1H-pyrazolo[3,4-d]pyrimidin-3-yl)-3-fluorophenyl)-4-(2,4-difluorophenyl)-3-methylimidazolidin-2-one]: the IC50 was below 100 nM.

With `CCN1C(=O)N(c2ccc(-c3cn(C)c4ncnc(N)c34)cn2)CC1c1cc(F)ccc1F` (centres unmarked) [Example 41, 1-(5-(4-amino-7-methyl-7H-pyrrolo[2,3-d]pyrimidin-5-yl)pyridin-2-yl)-4-(2,5-difluorophenyl)-3-ethylimidazolidin-2-one], the IC50 fell in the range of 100 to 1000 nM.

For the compound `CN1C(=O)N(c2ccc(-c3cn(C)c4ncnc(N)c34)c(F)c2)CC1c1ccc(F)cc1` (centres unmarked) [Example 68, 1-(4-(4-amino-7-methyl-7H-pyrrolo[2,3-d]pyrimidin-5-yl)-3-fluorophenyl)-4-(4-fluorophenyl)-3-methylimidazolidin-2-one], the IC50 is below 100 nM.

With `CN1C(=O)N(c2ccc(-c3cn(C4CC4)c4ncnc(N)c34)c(F)c2)CC1c1cccc(F)c1` (single isomer, unassigned) [Example 126, 1-(4-(4-amino-7-cyclopropyl-7H-pyrrolo[2,3-d]pyrimidin-5-yl)-3-fluorophenyl)-4-(3-fluorophenyl)-3-methylimidazolidin-2-one], the IC50 is below 100 nM.

On to `CN1C(=O)N(c2ccc(-c3cn(C4CC4)c4ncnc(N)c34)c(F)c2)CC1c1ccc(F)cc1` (single isomer, unassigned) [Example 163, 1-(4-(4-amino-7-cyclopropyl-7H-pyrrolo[2,3-d]pyrimidin-5-yl)-3-fluorophenyl)-4-(4-fluorophenyl)-3-methylimidazolidin-2-one], for which the IC50 is below 100 nM.

As for `CC(C)n1cc(-c2ccc(N3CC(c4cc(F)ccc4F)N(C)C3=O)cc2F)c2c(N)ncnc21` (single isomer, unassigned) [Example 87, 1-(4-(4-amino-7-isopropyl-7H-pyrrolo[2,3-d]pyrimidin-5-yl)-3-fluorophenyl)-4-(2,5-difluorophenyl)-3-methylimidazolidin-2-one], the IC50 lay within 100 to 1000 nM.

Take `Cc1nc(N)c2c(-c3ccc(N4CC(c5ccc(F)cc5F)N(C)C4=O)cc3F)cn(C3CC3)c2n1` (single isomer, unassigned) [Example 8, 1-(4-(4-amino-7-cyclopropyl-2-methyl-7H-pyrrolo[2,3-d]pyrimidin-5-yl)-3-fluorophenyl)-4-(2,4-difluorophenyl)-3-methylimidazolidin-2-one]: the IC50 was below 100 nM.
